Reference: publication PMC6934184, “Selective DNA-PKcs inhibition extends the therapeutic index of localized radiotherapy and chemotherapy” (The Journal of Clinical Investigation, 2019)

Target: T1, MLCK (MLCK2) (Homo sapiens, UniProt Q32MK0)
T1 construct: purchased Thermo Fisher Scientific (Life Technologies) SelectScreen
Assay: SelectScreen LanthaScreen
Assay type: binding
Details: read-out: % displacement
Outline: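 SelectScreen broad panel; activity (Z'LYTE, Adapta) plus binding formats. ATP: Km app for CSF1R Z'LYTE; 10 for CAMK1 Adapta. Readout = % per kinase.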

T1 sequence (Q32MK0 whole entry): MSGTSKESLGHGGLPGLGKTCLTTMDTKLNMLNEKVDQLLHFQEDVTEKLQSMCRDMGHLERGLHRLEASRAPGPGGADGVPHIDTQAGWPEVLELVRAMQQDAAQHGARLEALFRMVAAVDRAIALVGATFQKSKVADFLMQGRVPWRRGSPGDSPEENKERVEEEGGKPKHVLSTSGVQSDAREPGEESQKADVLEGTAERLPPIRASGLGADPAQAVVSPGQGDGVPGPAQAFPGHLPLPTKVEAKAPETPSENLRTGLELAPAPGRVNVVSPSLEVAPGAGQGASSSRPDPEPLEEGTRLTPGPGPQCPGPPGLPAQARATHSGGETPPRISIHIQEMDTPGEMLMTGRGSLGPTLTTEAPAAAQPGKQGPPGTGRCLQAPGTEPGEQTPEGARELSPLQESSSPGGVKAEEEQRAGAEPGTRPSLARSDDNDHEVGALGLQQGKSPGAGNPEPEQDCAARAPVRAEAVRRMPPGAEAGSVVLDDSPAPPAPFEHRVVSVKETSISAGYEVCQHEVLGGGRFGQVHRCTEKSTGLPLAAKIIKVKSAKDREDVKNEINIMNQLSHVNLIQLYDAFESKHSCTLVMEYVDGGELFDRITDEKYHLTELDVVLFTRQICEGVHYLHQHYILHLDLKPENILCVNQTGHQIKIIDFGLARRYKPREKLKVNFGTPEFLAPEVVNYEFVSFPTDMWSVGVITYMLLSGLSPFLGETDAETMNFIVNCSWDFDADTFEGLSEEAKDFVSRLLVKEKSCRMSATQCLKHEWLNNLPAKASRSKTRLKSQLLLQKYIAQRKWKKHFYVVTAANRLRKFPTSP

CN(C(=O)CN1CCOCC1)c1ccc2sc3c(-c4cccc5c(=O)cc(N6CC7CCC(C6)O7)oc45)cccc3c2c1 [NU5455]
inhibition at 1 µM: 1.5%
